Experimental data reported in ChEMBL document CHEMBL1914350, “Convolutamines I and J, antitrypanosomal alkaloids from the bryozoan Amathia tortusa” (Bioorg Med Chem, 2011).
In brackets after ≈: the same amount, converted by molar mass.

Legend:
[1] = system: Trypanosoma brucei brucei; assay: Antitrypanosomal activity against Trypanosoma brucei brucei after 48 hrs by alamar blue assay; format: functional, organism-based
HEK293 [2] = assay: Cytotoxicity against human HEK293 cells at 41 uM after 48 hrs by alamar blue assay; format: cell-based; details: hek293, 48 h
[3] = Lipophilicity, log P of the compound; format: physicochemical; details: octanol/water
HEK293 [4] = assay: Cytotoxicity against human HEK293 cells after 48 hrs by alamar blue assay; format: cell-based; details: HEK293, 48 h
[5] = Antimitotic activity in sea urchins assessed as inhibition of fertilized egg cell division; format: functional, Echinoidea
P388 = assay: Cytotoxicity against mouse P388 cells; format: functional, cell-based
HEK293 [6] = assay: Cytotoxicity against human HEK293 cells at 70 uM after 48 hrs by alamar blue assay; format: cell-based; details: hek293, 48 h
Haemonchus contortus = assay: Antiparasitic activity against Haemonchus contortus assessed as inhibition of free-living larval stage; format: functional
[7] = Selectivity index, ratio of IC50 for human HEK293 cells to IC50 for Trypanosoma brucei brucei; format: toxicity, cell-based; details: HEK293 cells versus Trypanosoma brucei brucei, read-out: Ratio IC50

With `COc1c(Br)cc(Br)c(CCN2C=[N+](C)CCC2)c1Br` [CONVOLUTAMINE J] the IC50 [1] was 13.7 µM, the Activity (HEK293 [2]) was “Non-toxic” and the logP [3] was 3.9.
For `N=C(N)c1ccc(OCCCCCOc2ccc(C(=N)N)cc2)cc1` [PENTAMIDINE], the IC50 [1] was 0.0151 µM and the IC50 (HEK293 [4]) was 71 µM.
Work on `CNCCc1c(Br)cc(Br)c(OC)c1Br` [CONVOLUTAMINE F] yielded an IC50 [5] of 81 µg/mL (≈ 202 µM).
For `COc1c(Br)cc(Br)c(CCN2COC(C)C2)c1Br` (stereo unspecified) [CONVOLUTAMINE D], the IC50 (P388) was 1.4 µg/mL (≈ 3.06 µM).
With `N=C(N)c1ccc(/N=N/Nc2ccc(C(=N)N)cc2)cc1` [DIMINAZENE] the IC50 [1] was 0.0701 µM and the Activity (HEK293 [6]) was “Non-toxic”.
Work on `COc1ccc(Br)c(CCN(C)CC(C)O)c1Br` (stereo unspecified) [CONVOLUTAMINE B] yielded an IC50 (P388) of 1.4 µg/mL (≈ 3.67 µM).
Compound `COc1c(Br)cc(Br)c(CCN(C)CC(C)O)c1Br` (stereo unspecified) [CONVOLUTAMINE A] has an IC50 (P388) of 1.4 µg/mL (≈ 3.04 µM).
For `CNCCc1c(Br)c(Br)c(Br)c(OC)c1OC` [CONVOLUTAMINE H], the LD99 (Haemonchus contortus) was 0.2 µg/mL.
Work on `COc1c(Br)cc(Br)c(CCNCCCN(C)C)c1Br` [CONVOLUTAMINE I] yielded an IC50 [1] of 1.1 µM, an IC50 (HEK293 [4]) of 22 µM and a selectivity ratio [7] of 18.3. It also gave a logP [3] of 4.1.
